Test results published in patent publication US6242455A, “Pyrimidin-2,4,6-trion derivatives, method for producing the same and medicinal products containing these compounds” (Roche Diagnostics GmbH, priority 1997, dated 2001).

Biological target: T1, Angiotensin-converting enzyme from rabbit lung (Oryctolagus cuniculus, UniProt P12822)
T1 construct: purchased Fluka; host or cells: rabbit lung
T1 sequence (P12822 34-1310): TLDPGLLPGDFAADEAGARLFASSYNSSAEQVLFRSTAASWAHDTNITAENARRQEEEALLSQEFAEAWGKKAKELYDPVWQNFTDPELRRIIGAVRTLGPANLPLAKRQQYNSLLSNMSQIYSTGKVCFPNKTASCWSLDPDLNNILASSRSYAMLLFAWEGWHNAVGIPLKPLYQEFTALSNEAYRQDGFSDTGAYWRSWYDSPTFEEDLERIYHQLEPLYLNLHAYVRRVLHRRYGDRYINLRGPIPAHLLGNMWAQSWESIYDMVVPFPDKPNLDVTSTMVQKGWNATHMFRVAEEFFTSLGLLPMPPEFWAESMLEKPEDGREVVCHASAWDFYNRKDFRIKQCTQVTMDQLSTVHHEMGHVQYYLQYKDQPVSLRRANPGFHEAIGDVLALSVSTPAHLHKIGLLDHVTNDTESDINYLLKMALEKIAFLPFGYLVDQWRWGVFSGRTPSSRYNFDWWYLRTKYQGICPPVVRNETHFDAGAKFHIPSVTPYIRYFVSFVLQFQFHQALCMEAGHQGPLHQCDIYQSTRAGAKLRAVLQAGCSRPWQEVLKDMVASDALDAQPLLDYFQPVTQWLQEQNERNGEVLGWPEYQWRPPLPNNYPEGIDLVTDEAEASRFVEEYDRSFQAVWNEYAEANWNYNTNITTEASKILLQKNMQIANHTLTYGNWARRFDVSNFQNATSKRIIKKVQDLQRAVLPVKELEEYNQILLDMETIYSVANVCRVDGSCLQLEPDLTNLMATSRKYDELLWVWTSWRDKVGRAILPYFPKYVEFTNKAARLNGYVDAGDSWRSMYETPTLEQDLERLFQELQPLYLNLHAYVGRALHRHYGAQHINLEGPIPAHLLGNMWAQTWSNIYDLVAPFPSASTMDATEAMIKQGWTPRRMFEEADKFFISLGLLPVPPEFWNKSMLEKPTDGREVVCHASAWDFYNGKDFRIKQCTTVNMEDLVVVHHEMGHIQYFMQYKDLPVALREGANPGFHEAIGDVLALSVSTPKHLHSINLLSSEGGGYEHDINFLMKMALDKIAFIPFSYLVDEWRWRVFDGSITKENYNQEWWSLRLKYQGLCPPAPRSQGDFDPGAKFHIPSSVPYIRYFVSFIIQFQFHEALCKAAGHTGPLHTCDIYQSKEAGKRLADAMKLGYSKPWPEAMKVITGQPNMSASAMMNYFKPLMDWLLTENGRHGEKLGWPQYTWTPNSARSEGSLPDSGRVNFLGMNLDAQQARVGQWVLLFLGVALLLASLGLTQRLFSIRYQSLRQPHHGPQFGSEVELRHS
Assay: ACE-fluorescence assay for the determination of the IC50 value
Format: biochemical
Conditions: substrate Abz-Gly-Phe(NO2)-Pro 20 μM, pH 8.0, 36° C., inhibitor 0 to 100 μM
Description: ACE-fluorescence assay for the determination of the IC50 value
Literature: Amos Carmel and Arieh Yaron, Eur. J. Biochem. […], 265-273 (1978). An Intramolecularly Quenched Fluorescent Tripeptide as a Fluorogenic Substrate of Angiotensin-I-Converting Enzyme and of Bacterial Dipeptidyl Carboxypeptidase.
Enzyme: Angiotensin-converting enzyme from rabbit lung (EC.3.4.15.1), Fluka (3.3 U/μg)
Substrate: Abz-Gly-Phe(NO2)-Pro, M-1100 Bachem
Assay buffer: 0.05 Tris-HCl
Excitation: 360 nm (excitation slit: 8 nm)
Emission: 410 nm (emission slit: 10 nm)
Substrate stock solution: […] in assay buffer
Enzyme stock solution: […] assay buffer
Inhibitor stock solution: 1 mM in DMSO diluted in assay buffer
Measuring cuvette: 50 μl substrate (yields 20 μM)
0 to 100 μl inhibitor stock solution […]
fill up remainder to 1 ml
Substrate, inhibitor and buffer are added together in a heated measuring cuvette and the enzyme reaction is started by addition of enzyme. The increase in fluorescence over time (200 s) is monitored in a time scan. The respective initial rate is determined from the increase.
The IC50 value can be determined as follows:
V0 =initial rate without inhibitor
[I]=inhibitor concentration

## CC(C)(C)C(C(=O)O)C(=O)NC1(c2ccccc2)C(=O)NC(=O)NC1=O (stereo not shown) [Example 4, 3. 3-Dimethyl-2-(2,4,6-trioxo-5-phenyl-hexahydro-pyrimidin-5-ylcarbamoyl)-butyric acid]
  IC50: 159 µM
